From patent US20070249623A1, “1-(Indole-6-Carbonyl-D-Phenylglycinyl)-4-(1-Methylpiperidin-4-Yl)Piperazine D-Tartrate” (Eli Lilly and Company Patent Division, priority 2004, published 2007)
Read-outs that look alike come from different tables or passages of the source.

Tests used:
[1] = solid form stability at high relative humidity and in aqueous suspension; format: physicochemical
Excerpt: Salts of 1-(indole-6-carbonyl-D-phenylglycinyl)-4-(1-methylpiperidin-4-yl)piperazine that form crystalline solids are disclosed in Examples 48a (hydrochloride salt) and 48b (difumarate salt) of WO 01/96323. […] Thus, the form disclosed in WO 02/100847 as Form 1 is obtained as thin needles. The thin needle morphology has disadvantages for formulation, however, because of, inter alia, clustering and low bulk density. […] The form disclosed in WO 02/100847 as Form 2 has the disadvantage, inter alia, that the particle size is very small, resulting in extremely slow filtration.

Factor Xa = Factor Xa (Homo sapiens, UniProt P00742); details: as disclosed in WO 00/76971; cited from earlier work
equilibrium solubility = format: physicochemical; details: thermodynamic from solid, 25° C., measured as the free base
[2] = moisture sorption isotherm (vacuum microbalance); format: physicochemical; details: ambient temperature, once the dihydrate had been formed
Protocol: A moisture sorption isotherm of the D-tartrate crystals was also determined using a vacuum microbalance, with a 40° C. drying step prior to initial data collection. With the initial drying step, an initial 6% weight loss was observed, consistent with the removal of the waters of crystallization. As the relative humidity was increased, the sample resorbed water, with rehydration being completed when the relative humidity reached about 20%.

Chain of Factor Xa (P00742 235-488 limits assumed): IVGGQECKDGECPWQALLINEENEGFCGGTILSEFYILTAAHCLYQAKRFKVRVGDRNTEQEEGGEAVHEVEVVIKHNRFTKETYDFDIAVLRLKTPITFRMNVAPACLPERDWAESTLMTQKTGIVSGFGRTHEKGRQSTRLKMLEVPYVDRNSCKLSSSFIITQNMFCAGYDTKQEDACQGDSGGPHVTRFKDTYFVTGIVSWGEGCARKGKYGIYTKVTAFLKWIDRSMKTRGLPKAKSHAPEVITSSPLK
Chain of Factor Xa (P00742 41-179 partner limits assumed): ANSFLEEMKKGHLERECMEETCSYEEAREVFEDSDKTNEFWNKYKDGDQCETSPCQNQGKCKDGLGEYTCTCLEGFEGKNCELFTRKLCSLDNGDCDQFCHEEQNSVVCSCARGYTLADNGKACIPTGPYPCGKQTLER

For `CN1CCC(N2CCN(C(=O)[C@H](NC(=O)c3ccc4cc[nH]c4c3)c3ccccc3)CC2)CC1.O=C(O)/C=C/C(=O)O.O=C(O)/C=C/C(=O)O` [Form 1], the “form conversion under extremely high relative humidity” value ([1]; above 80% relative humidity) was “convert to a different (higher) hydrate” and the “form conversion in aqueous suspensions” value ([1]; aqueous suspensions) was “convert into the form disclosed in WO 02/100847 as Form 2”.

For `CN1CCC(N2CCN(C(=O)[C@H](NC(=O)c3ccc4cc[nH]c4c3)c3ccccc3)CC2)CC1` [1-(indole-6-carbonyl-D-phenylglycinyl)-4-(1-methylpiperidin-4-yl)-piperazine], the “inhibition of Factor Xa” value (Factor Xa) is listed as “potent and selective inhibitor of Factor Xa”.

With `CN1CCC(N2CCN(C(=O)[C@H](NC(=O)c3ccc4cc[nH]c4c3)c3ccccc3)CC2)CC1.O.O.O=C(O)C(O)C(O)C(=O)O` [D-tartrate crystals, 1-(Indole-6-carbonyl-D-phenylglycinyl)-4-(1-methylpiperidin-4-yl)piperazine D-Tartrate Dihydrate] the solubility thermodynamic (equilibrium solubility; simulated gastric fluid, 0.01 M HCl, read-out: equilibrium solubility in 0.01 M HCl) was ≥ 125 mg/mL, the solubility thermodynamic (equilibrium solubility; water, read-out: equilibrium solubility in water) was ≥ 126 mg/mL and the “stability of the dihydrate to relative humidity” value [2] was “remained stable between 5 and 95% relative humidity”.
